Source: US20050171084A1, “Methods of treatment with lxr modulators” (priority 2002, published 2005)

Assays:
[1] = system: ABCA1; experiment: ABCA1 gene expression in primary astrocyte cultures (QRT-PCR); type: cell-based, mouse; conditions: Astrocytes
Protocol: (§1) Total RNA was isolated from tissue and cell culture samples using TRIzol reagent (GibcoBRL). Briefly, tissue samples were thawed directly in 1 ml Trizol/50 mg tissue and homogenized with a polytron. To facilitate recovery of nucleic acid, 100 μg glycogen (Ambion) was added. Cultured cells were lysed in 1 ml Trizol containing 100 μg glycogen per well. Samples were then extracted in chloroform and spun at 4° C. at 11,000×g for 15 min. The aqueous phase was collected and the RNA was precipitated with the addition of isopropanol. The samples were then spun at 11,000×g at 4° C. for 15 min, the pellet washed in 75% ethanol, dried, and dissolved in water. Samples were stored at −70° C. until use.
(§2) Total RNA samples were diluted to 100 μg/ml and treated with 40 units/ml […] DNAse-I (Ambion) for 30 min at 37° C. followed by inactivation at 75° C. for 5 min. Samples were quantitated by spectrophotometry or with the RiboGreen assay (Molecular Probes) and diluted to a concentration of 10 ng/μl. […] In this system, the probe is degraded by Taq polymerase during the amplification phase, releasing the fluorescent tag from its quenched state; amplification data is expressed as the number of PCR cycles required to elevate the fluorescence signal beyond a threshold intensity level. […]

[2] = system: ABCG1; experiment: ABCG1 gene expression in primary neuron cultures (QRT-PCR); type: cell-based, mouse; conditions: Neurons
Protocol: as §1, §2

[3] = system: SREBP-1c; experiment: SREBP-1c gene expression in primary astrocyte cultures (QRT-PCR); type: cell-based, mouse; conditions: Astrocytes
Protocol: as §1, §2

[4] = system: Murine astroglia; experiment: Cholesterol efflux from astrocytes; type: cell-based, mouse; conditions: basal efflux, standard deviation in parentheses, * p<0.05
Protocol: Murine astroglia were obtained from postnatal day 1 pups. Briefly, pups were decapitated, their brains removed, and the cerebral cortices prepared as described previously (45), except that astrocyte plating media was used (Dulbecco's modified eagle media [DMEM] containing 4 mg/ml glucose, 5% FBS and 5% HS [GibcoBRL or Irvine Scientific], 100 U/ml penecillin/100 μg/ml streptomycin, 25 mM HEPES, and 2-4 mM glutamine). Glia were grown in T75 flasks at a density of approximately 2 brains per flask. Cells were fed once weekly by complete media exchange in maintenance media (DMEM containing 4.5 mg/ml glucose, 10% FBS, 100 U/ml penecillin/100 μg/ml streptomycin, 25 mM HEPES, and 6 mM glutamine). By visual inspection, these cultures were nearly entirely astroglial with <1% contamination with microglia. After 7-14 days in vitro, cells were collected by trypsinization, counted in a hemacytometer, and plated into 6-well plates at 50-100,000 cells per well in maintenance media. […]
Cholesterol efflux assays were performed as described elsewhere (24) with some modifications. […] Two hundred microliters of the culture media supernatant and 200 μl of the cell extract were counted for tritium in 2 ml Packard Ultima Gold Scint. […] Efflux is expressed as percent of the total radiolabeled cholesterol pool present in the cultures.

[5] = system: SREBP-1c; experiment: SREBP-1c gene expression in primary neuron cultures (QRT-PCR); type: cell-based, mouse; conditions: Neurons
Protocol: as §1, §2

[6] = system: Hippocampal neurons; experiment: Neurite outgrowth in hippocampal neurons; type: cell-based, rat; conditions: HC neurons, 48 hours, SEM in parentheses
Protocol: Hippocampal neurons: The hippocampi of gestational day 18 rat embryos were dissected out, incubated in trypsin (0.08%, 30 min at 37° C.) and dissociated mechanically (16). Hippocampal cells were resuspended in neurobasal medium supplemented with B27, anti-oxidants, 1 mM glutamine, 25 μM glutamate, 1 mM pyruvate. For outgrowth assays, cells were plated at a density of 3000 cells/well into 96 well dishes that had previously been coated with poly-D-lysine followed by 10% FCS and cultured for 48 hours.
(§3) The test compound was solubilised in DMSO and added to culture medium at time of cell plating at a dilution of 1:1000. Vehicle only (1:1000) was added to culture medium of untreated controls. Cells were fixed with 4% paraformaldehyde for 1 hour on ice, washed with PBS and stained using Coomassie. Assays were quantified using a KS300 image analysis system (Imaging Associates, UK). For each cell measured, the length from the edge of the cell to the end of the longest neurite was measured for 100 cells/well for each treatment in triplicate. All data are means and SEM pooled from three independent experiments. Results are expressed as a percentage of the length of neurites of cells treated with vehicle alone.

[7] = system: Cortical neurons; experiment: Neurite outgrowth in cortical neurons; type: cell-based, rat; conditions: CR neurons, 24 hours, standard error of triplicate wells in parentheses
Protocol: Cortical neurons: Cortex from gestational day 18-20 rat embryos were collected in HBSS on ice. Cells were dissociated as described for hippocampal neurons. Cells were pelted (200 g, 5 mins and resuspended in medium as described for hippocampal cells. Cells were plated at 6000 cells/well and cultured for 24 hours.
as §3

Row | ABCA1 expression normalized to vehicle-treated group (fold induction) [1] | ABCG1 expression normalized to vehicle-treated group (fold induction) [2] | SREBP-1c expression normalized to vehicle-treated group (fold induction) [3] | SREBP-1c expression normalized to vehicle-treated group (fold induction) [5] | Structure (SMILES) | Cholesterol efflux as a percentage of total [3H] cholesterol [4] | length of longest neurite, percentage of cells treated with vehicle alone ([6]; 0.3 μm test compound) | length of longest neurite, percentage of cells treated with vehicle alone ([6]; 1.0 μm test compound) | length of longest neurite, percentage of cells treated with vehicle alone ([6]; 3.0 μm test compound) | length of longest neurite, percentage of cells treated with vehicle alone ([6]; 10.0 μm test compound) | length of longest neurite, percentage of cells treated with vehicle alone ([7]; 0.3 μm test compound) | length of longest neurite, percentage of cells treated with vehicle alone ([7]; 1.0 μm test compound) | length of longest neurite, percentage of cells treated with vehicle alone ([7]; 3.0 μm test compound) | length of longest neurite, percentage of cells treated with vehicle alone ([7]; 10.0 μm test compound)
1 | 18.4 | 3.1 | 20.2 | 3.1 | O=S(=O)(c1ccccc1)N(CC(F)(F)F)c1ccc(C(O)(C(F)(F)F)C(F)(F)F)cc1 [Example T0901317, N-(2,2,2-trifluoroethyl)-N-[4-(2,2,2-trifluoro-1-hydroxy-1-trifluoromethyl-ethyl)-phenyl]-benzenesulfonamide] | 4.370 (0.561)* % |  |  |  |  |  |  |  | 
2 | 11.8 | 2.8 | 13.9 | 3.1 | O=C(O)Cc1cccc(OCCCN(Cc2cccc(C(F)(F)F)c2Cl)CC(c2ccccc2)c2ccccc2)c1 [Example 1, 2-(3-{3-[[2-Chloro-3-(trifluoromethyl)benzyl](2,2-diphenylethyl)amino]propoxy}-phenyl)acetic Acid] | 4.722 (0.783)* % | 109 (6.25) % | 113 (5.05) % | 120 (7.75) % | 147 (11.8) % | 105 (1.79) % | 110 (2.4) % | 123.6 (6.6) % | 126.23 (2.5) %
